Experiment [1] relates to HepG2. The experiment can be described thus: cells. The conditions noted are these: Homo sapiens, HepG2, 48 h.
In experiment [2] the test system is MGC-803. The experiment can be described thus: Antiproliferative activity against human MGC803 cells after 48 hrs by MTT assay. Type of experiment: functional, cell-based. The conditions noted are these: MGC-803, 48 h.
Experiment [3] relates to HeLa. Description: cells. The conditions noted are these: Homo sapiens, 48 h.
Experiment [4] concerns HepG2. Description: Downregulation of Ki67 protein levels in human HepG2 cells after 48 hrs by Western blot analysis. The experiment is classed as functional, cell-based.
Experiment [5] has as its system HepG2. The experiment can be described thus: Cell cycle arrest in human HepG2 cells assessed as decrease in accumulation of cells at S phase at 4 ug/ml after 48 hrs by propidium iodide staining-based flow cytometric analysis. Type of experiment: functional.
For experiment [6], the system named is HepG2. The experiment can be described thus: Downregulation of beta-Catenin protein levels in human HepG2 cells after 48 hrs by Western blot analysis. The experiment is classed as functional, cell-based.
Experiment [7] has as its system HepG2. Description: Downregulation of cyclin D1 protein levels in human HepG2 cells after 48 hrs by Western blot analysis. Type of experiment: functional, cell-based.
The subject of experiment [8] is HepG2. The experiment can be described thus: Downregulation of C-myc protein levels in human HepG2 cells after 48 hrs by Western blot analysis. The experiment is classed as functional, cell-based.
The subject of experiment [9] is HepG2. Description: Upregulation of vimentin protein levels in human HepG2 cells at 4 ug/ml after 48 hrs by Western blot analysis. Type of experiment: functional, cell-based.
For experiment [10], the system named is HepG2. The experiment can be described thus: Cell cycle arrest in human HepG2 cells assessed as increase in accumulation of cells at G0/G1 phase at 4 ug/ml after 48 hrs by propidium iodide staining-based flow cytometric analysis. The experiment is classed as functional.
Experiment [11] concerns H22. The experiment can be described thus: Antitumor activity against mouse H22 cells implanted in mouse assessed as tumor growth inhibition at 50 mg/kg, ip qd administered for 10 consecutive days measured after 24 hrs post last dose relative to control. The experiment is classed as functional. The conditions noted are these: read-out: TGI.

pIC50: −log10 of the molar value. Active and inactive are the calls of the source. The rule behind the calls is not given here. A value given as a limit tells only on which side of the number the result lay.

26 molecules from ChEMBL document CHEMBL4177667, “Design, synthesis, and anticancer properties of isocorydine derivatives” (Bioorg Med Chem, 2017) can be followed below.

As for `COc1cc(NC(=O)Nc2ccc(Cl)c(Cl)c2)c2c(c1O)-c1c(OC)c(OC)cc3c1[C@H](C2)N(C)CC3`, the figures for the pIC50 in [1], in experiment [2] and in experiment [3] were 4.55, 4.52 and 4.66, respectively.
The matching figures for `COc1cc(NC(=O)/C=C/c2ccccc2)c2c(c1O)-c1c(OC)c(OC)cc3c1[C@H](C2)N(C)CC3`: 4.20, 4.42 and 4.13.
Taken in the same sequence, the figures for `CCC(=O)NC1CCN(c2ccc(NC(=O)Nc3cc(OC)c(O)c4c3C[C@H]3c5c(cc(OC)c(OC)c5-4)CCN3C)cc2C(F)(F)F)CC1` were 4.54, 4.49 and 4.48.
Consider `CNC(=O)c1cc(Oc2ccc(NC(=O)Nc3ccc(Cl)c(C(F)(F)F)c3)cc2)ccn1` [SORAFENIB], for which the Activity entry in experiment [4], in experiment [6], in experiment [7] and in [8] was “Dose-dependent effect” each time. Further, the result in [5], in [9] and in experiment [10] was Active. Further, the inhibition in vivo at 50 mg/kg in experiment [11] was in the range of 55.8 to 56.5%.
Regarding `COc1cc(NC(=O)Nc2ccc(N3CCC(NC(=O)OC(C)(C)C)CC3)c(C(F)(F)F)c2)c2c(c1O)-c1c(OC)c(OC)cc3c1[C@H](C2)N(C)CC3`, the pIC50 is 4.59 in experiment [1], 4.54 in [2] and 4.57 in [3].
For the molecule `COc1cc(NC(=O)Nc2ccc(N3CCC(CNC(=O)OC(C)(C)C)CC3)c(C(F)(F)F)c2)c2c(c1O)-c1c(OC)c(OC)cc3c1[C@H](C2)N(C)CC3`, the pIC50 is 4.72 in experiment [1], 4.63 in experiment [2] and 4.66 in [3].
As for `COc1cc2c3c(c1O)-c1c(ccc(O)c1OC)C[C@@H]3N(C)CC2`, the pIC50 in [1] was 3.81; in experiment [2], 3.91; in experiment [3] it was 3.96.
The matching figures for `COc1cc2c3c(c1O)-c1c(ccc(OC)c1OC)C[C@@H]3N(C)CC2` [CORYDINE]: below 3.70, below 3.70 and below 3.70.
As to `COc1cc(N)c2c(c1O)-c1c(OC)c(OC)cc3c1[C@H](C2)N(C)CC3`, the values for the pIC50 in experiment [1], in experiment [2] and in experiment [3] were 4.29, 4.21 and 4.36, respectively.
Consider `COc1cc(NC(=O)c2cc(Cc3n[nH]c(=O)c4ccccc34)ccc2F)c2c(c1O)-c1c(OC)c(OC)cc3c1[C@H](C2)N(C)CC3`, for which the values for the pIC50 in experiment [1], in [2] and in [3] were 4.52, 4.57 and 4.53, respectively.
The matching figures for `CCC(=O)NCC1CCN(c2ccc(NC(=O)Nc3cc(OC)c(O)c4c3C[C@H]3c5c(cc(OC)c(OC)c5-4)CCN3C)cc2C(F)(F)F)CC1`: 4.68, 4.69 and 4.49.
The matching figures for `COc1cc(NC(=O)Nc2ccc(N3CCC(N)CC3)c(C(F)(F)F)c2)c2c(c1O)-c1c(OC)c(OC)cc3c1[C@H](C2)N(C)CC3`: 4.54, 4.49 and 4.47.
Taken in the same sequence, the figures for `COc1ccc2c(c1O)-c1c(OC)c(OC)cc3c1[C@H](C2)N(C)CC3` [ISOCORYDINE] were below 3.70, below 3.70 and below 3.70.
Regarding `COc1cc(NC(=O)Nc2ccccc2Cl)c2c(c1OC(=O)Nc1ccccc1Cl)-c1c(OC)c(OC)cc3c1[C@H](C2)N(C)CC3`, the negative logarithm of the IC50 (pIC50) in experiment [1] is 4.76; in experiment [2] it was 4.57; in experiment [3], 4.57.
With `COc1cc(NC(=O)Nc2ccc(C(F)(F)F)cc2)c2c(c1O)-c1c(OC)c(OC)cc3c1[C@H](C2)N(C)CC3`, the negative logarithm of the IC50 (pIC50) in experiment [1] is 4.34; in experiment [2], 4.24; in experiment [3] it was 4.31.
With `COc1cc(NC(=O)Nc2ccccc2Cl)c2c(c1O)-c1c(OC)c(OC)cc3c1[C@H](C2)N(C)CC3`, the pIC50 in [1] was 4.43; in experiment [2], 4.45; in [3], 4.43.
As for `COc1ccc2c(c1O)-c1c(O)c(OC)cc3c1[C@H](C2)N(C)CC3` [CORYTUBERINE], the negative logarithm of the IC50 (pIC50) in [1], in experiment [2] and in [3] was below 3.70 each time.
In the case of `COc1cc(NC(=O)Nc2ccc(SC)cc2)c2c(c1O)-c1c(OC)c(OC)cc3c1[C@H](C2)N(C)CC3`, the pIC50 in [1] is 4.27; in experiment [2], 4.32; in experiment [3], 4.33.
The matching figures for `COc1cc(NC(=O)Nc2ccc(C)cc2)c2c(c1OC(=O)Nc1ccc(C)cc1)-c1c(OC)c(OC)cc3c1[C@H](C2)N(C)CC3`: 4.79, 4.59 and 4.72.
`COc1cc(NC(=O)c2ccc(Cl)c(C(F)(F)F)c2)c2c(c1O)-c1c(OC)c(OC)cc3c1[C@H](C2)N(C)CC3`: the negative logarithm of the IC50 (pIC50) in [1] was 4.67; in experiment [2], 4.66; in [3], 4.78.
In the case of `COc1cc(NC(=O)Nc2ccc(F)cc2)c2c(c1OC(=O)Nc1ccc(F)cc1)-c1c(OC)c(OC)cc3c1[C@H](C2)N(C)CC3`, the results for the pIC50 in experiment [1], in experiment [2] and in [3] were 4.57, 4.60 and 4.57, respectively.
For `COc1cc(NC(=O)c2ccccc2O)c2c(c1O)-c1c(OC)c(OC)cc3c1[C@H](C2)N(C)CC3`, the results for the negative logarithm of the IC50 (pIC50) in [1], in experiment [2] and in [3] were 4.12, 4.25 and 4.21, respectively.
The matching figures for `COc1cc(NC(=O)Nc2ccc(C(F)(F)F)cc2)c2c(c1OC(=O)Nc1ccc(C(F)(F)F)cc1)-c1c(OC)c(OC)cc3c1[C@H](C2)N(C)CC3`: 4.36, 4.41 and 4.32.
The matching figures for `COC1=CC(=O)c2cc3c4c(cc(OC)c(OC)c4c2C1=O)CCN3C`: 4.40, 4.30 and 4.50.
Take `COc1cc(NC(=O)c2cccnc2)c2c(c1O)-c1c(OC)c(OC)cc3c1[C@H](C2)N(C)CC3`: the pIC50 in experiment [1] was 4.16; in [2] it was 4.46; in experiment [3], 4.30.
For `COc1cc(NC(=O)Nc2ccccc2C)c2c(c1OC(=O)Nc1ccccc1C)-c1c(OC)c(OC)cc3c1[C@H](C2)N(C)CC3`, the pIC50 in [1] is 4.50; in experiment [2] it was 4.64; in experiment [3], 4.36.
